{
  "source": "ChEMBL document CHEMBL4765403",
  "about": "“Augmentation of the antitumor effects of PARP inhibitors in triple-negative breast cancer via degradation by hydrophobic tagging modulation” (Eur J Med Chem, 2020)",
  "key": {"[1]": {"target": "Poly [ADP-ribose] polymerase 1 (Homo sapiens) (UniProt P09874)", "sequence (P09874 whole entry)": "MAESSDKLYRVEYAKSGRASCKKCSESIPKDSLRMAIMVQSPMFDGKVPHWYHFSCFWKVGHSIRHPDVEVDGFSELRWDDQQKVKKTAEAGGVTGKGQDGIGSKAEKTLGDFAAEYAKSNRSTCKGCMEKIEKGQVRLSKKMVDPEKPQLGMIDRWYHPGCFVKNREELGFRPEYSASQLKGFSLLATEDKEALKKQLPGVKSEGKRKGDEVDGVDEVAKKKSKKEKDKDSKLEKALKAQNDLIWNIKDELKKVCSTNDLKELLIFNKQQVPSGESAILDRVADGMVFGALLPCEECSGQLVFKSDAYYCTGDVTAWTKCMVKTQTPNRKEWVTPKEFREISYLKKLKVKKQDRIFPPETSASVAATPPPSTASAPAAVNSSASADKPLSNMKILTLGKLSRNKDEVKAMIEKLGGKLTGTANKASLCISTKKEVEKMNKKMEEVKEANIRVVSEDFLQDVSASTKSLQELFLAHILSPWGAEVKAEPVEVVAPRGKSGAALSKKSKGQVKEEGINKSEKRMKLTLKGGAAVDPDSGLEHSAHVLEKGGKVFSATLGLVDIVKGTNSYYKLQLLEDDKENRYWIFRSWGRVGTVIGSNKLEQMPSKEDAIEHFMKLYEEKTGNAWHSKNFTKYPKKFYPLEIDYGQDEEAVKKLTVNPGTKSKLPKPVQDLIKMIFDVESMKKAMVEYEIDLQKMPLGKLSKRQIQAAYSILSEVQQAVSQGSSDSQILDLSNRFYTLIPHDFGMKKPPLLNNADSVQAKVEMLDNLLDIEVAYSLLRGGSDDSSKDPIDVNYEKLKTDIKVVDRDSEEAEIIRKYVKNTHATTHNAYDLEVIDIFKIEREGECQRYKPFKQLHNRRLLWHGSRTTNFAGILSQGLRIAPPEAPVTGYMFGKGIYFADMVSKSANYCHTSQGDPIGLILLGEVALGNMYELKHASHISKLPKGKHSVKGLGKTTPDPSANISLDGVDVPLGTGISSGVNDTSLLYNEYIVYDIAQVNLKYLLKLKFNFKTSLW", "test": "Induction of PARP1 degradation in human MDA-MB-231 cells at 5 uM incubated for 48 hrs in presence of proteasome inhibitor, bortezomib by immunoblotting analysis", "type": "cell-based"}, "[2]": {"target": "Poly [ADP-ribose] polymerase 1 (Homo sapiens) (UniProt P09874)", "test": "Induction of PARP1 degradation in human MDA-MB-468 cells at 5 uM incubated for 48 hrs in presence 5 uM PARP1 inhibitor olaparib by Western blot analysis", "type": "cell-based"}, "[3]": {"tested_on": "MDA-MB-468", "test": "Induction of endoplasmic reticulum stress in human MDA-MB-468 cells assessed as increase in CHOP protein expression at 5 uM incubated for 48 hrs by Western blot analysis", "type": "functional, cell-based"}, "[4]": {"target": "Poly [ADP-ribose] polymerase 1 (Homo sapiens) (UniProt P09874)", "test": "Induction of PARP1 degradation in human MDA-MB-231 cells at 5 uM pretreated for 2 hrs with proteasome inhibitor, bortezomib for 2 hrs followed by incubation with compound for 48 hrs by immunoblotting analysis", "type": "cell-based"}, "[5]": {"target": "Poly [ADP-ribose] polymerase 1 (Homo sapiens) (UniProt P09874)", "test": "Induction of PARP1 degradation in triple-negative human MDA-MB-231 cells assessed as fold change in PARP1 protein expression at 1 uM incubated for 24 hrs by Western blot analysis relative to control", "type": "cell-based"}, "[6]": {"tested_on": "MDA-MB-231", "test": "Induction of endoplasmic reticulum stress in human MDA-MB-231 cells assessed as upregulation in CHOP gene expression at 5 to 10 uM incubated for 24 to 48 hrs by RT-PCR analysis", "type": "functional, cell-based", "details": "dose 5-10 µM, time 24-48 hrs"}, "[7]": {"tested_on": "MDA-MB-231", "test": "Induction of apoptosis in human MDA-MB-231 cells assessed as downregulation in Bcl2 gene expression at 5 to 10 uM incubated for 24 to 48 hrs by RT-PCR analysis", "type": "functional, cell-based", "details": "dose 5-10 µM, time 24-48 hrs"}, "[8]": {"tested_on": "MDA-MB-231", "test": "Induction of endoplasmic reticulum stress in human MDA-MB-231 cells assessed as increase in CHOP protein expression at 5 uM measured after 24 to 72 hrs by Western blot analysis", "type": "functional, cell-based", "details": "time 24-72 hrs"}, "[9]": {"target": "Poly [ADP-ribose] polymerase 1 (Homo sapiens) (UniProt P09874)", "test": "Induction of PARP1 degradation in human MDA-MB-468 cells assessed as fold change in PARP1 protein expression at 5 uM incubated for 48 hrs in presence of pan-caspase inhibitor, Z-VAD-FMK by Western blot analysis", "type": "cell-based"}, "[10]": {"target": "Poly [ADP-ribose] polymerase 1 (Homo sapiens) (UniProt P09874)", "test": "Induction of PARP1 degradation in triple-negative human MDA-MB-231 cells assessed as fold change in PARP1 protein expression at 0.5 uM incubated for 48 hrs by Western blot analysis relative to control", "type": "cell-based"}, "[11]": {"tested_on": "MDA-MB-231", "test": "Induction of endoplasmic reticulum stress in human MDA-MB-231 cells assessed as increase in XBP-1s protein expression at 5 uM measured after 24 to 72 hrs by Western blot analysis", "type": "functional, cell-based", "details": "time 24-72 hrs"}, "[12]": {"target": "Poly [ADP-ribose] polymerase 1 (Homo sapiens) (UniProt P09874)", "test": "Induction of PARP1 degradation in triple-negative human MDA-MB-231 cells assessed as fold change in PARP1 protein expression at 0.1 uM incubated for 48 hrs by Western blot analysis relative to control", "type": "cell-based"}, "[13]": {"tested_on": "MDA-MB-231", "test": "Induction of apoptosis in human MDA-MB-231 cells assessed as apoptotic body formation at 5 uM incubated for 24 to 48 hrs by transmission electron microscopy", "type": "functional, cell-based", "details": "time 24-48 hrs"}, "[14]": {"target": "Poly [ADP-ribose] polymerase 1 (Homo sapiens) (UniProt P09874)", "test": "Induction of PARP1 degradation in human MDA-MB-231 cells at 2.5 uM incubated for 48 hrs by Western blot analysis relative to control", "type": "cell-based"}, "[15]": {"tested_on": "MDA-MB-468", "test": "Induction of apoptosis in human MDA-MB-468 cells assessed as decrease in Bcl2 protein expression at 5 uM incubated for 48 hrs by Western blot analysis", "type": "functional, cell-based"}, "[16]": {"tested_on": "MDA-MB-231", "test": "Induction of autophagy in human MDA-MB-231 cells assessed as upregulation in LC3B protein expression at 5 uM measured after 48 to 72 hrs by Western blot analysis", "type": "functional, cell-based", "details": "time 48-72 hrs"}, "[17]": {"tested_on": "MDA-MB-231", "test": "Induction of apoptosis in human MDA-MB-231 cells assessed as upregulation in Bax gene expression at 5 to 10 uM incubated for 24 to 48 hrs by RT-PCR analysis", "type": "functional, cell-based", "details": "dose 5-10 µM, time 24-48 hrs"}, "[18]": {"tested_on": "MDA-MB-468", "test": "Cytotoxicity against human MDA-MB-468 cells assessed as reduction in cell viability measured after 96 hrs by CCK8 assay", "type": "functional, cell-based", "details": "MDA-MB-468, 96 h"}, "[19]": {"tested_on": "MDA-MB-468", "test": "Induction of apoptosis in human MDA-MB-468 cells assessed as increase in p21 protein expression at 5 uM incubated for 48 hrs by Western blot analysis", "type": "functional, cell-based"}, "[20]": {"tested_on": "MDA-MB-231", "test": "Induction of apoptosis in human MDA-MB-231 cells assessed as upregulation in p21 gene expression at 5 to 10 uM incubated for 24 to 48 hrs by RT-PCR analysis", "type": "functional, cell-based", "details": "dose 5-10 µM, time 24-48 hrs"}, "[21]": {"tested_on": "MDA-MB-231", "test": "Cytotoxicity against human MDA-MB-231 cells assessed as reduction in cell viability measured after 96 hrs by CCK8 assay", "type": "functional, cell-based", "details": "MDA-MB-231, 96 h"}, "[22]": {"target": "Poly [ADP-ribose] polymerase 1 (Homo sapiens) (UniProt P09874)", "test": "Induction of PARP1 degradation in human MDA-MB-231 cells assessed as fold change in PARP1 protein expression at 5 uM pretreated for 2 hrs with pan-caspase inhibitor, Z-VAD-FMK followed by incubation with compound for 48 hrs by Western blot analysis relative to control", "type": "cell-based"}, "[23]": {"target": "Poly [ADP-ribose] polymerase 1 (Homo sapiens) (UniProt P09874)", "test": "Induction of PARP1 degradation in triple-negative human MDA-MB-231 cells assessed as fold change in PARP1 protein expression at 0.01 uM incubated for 24 hrs by Western blot analysis relative to control", "type": "cell-based"}, "[24]": {"target": "Poly [ADP-ribose] polymerase 1 (Homo sapiens) (UniProt P09874)", "test": "Induction of PARP1 degradation in human MDA-MB-231 cells at 5 uM incubated for 48 hrs in presence of proteasome inhibitor, carfilzomib by immunoblotting analysis", "type": "cell-based"}, "[25]": {"target": "Poly [ADP-ribose] polymerase 1 (Homo sapiens) (UniProt P09874)", "test": "Induction of PARP1 degradation in human MDA-MB-231 cells assessed as fold change in PARP1 protein expression at 5 uM pretreated with caspase I inhibitor, Ac-YVAD-cmk for 2 hrs followed by incubation with compound for 48 hrs by Western blot analysis relative to control", "type": "cell-based"}, "[26]": {"target": "Poly [ADP-ribose] polymerase 1 (Homo sapiens) (UniProt P09874)", "test": "Induction of PARP1 degradation in triple-negative human MDA-MB-231 cells assessed as fold change in PARP1 protein expression at 0.5 uM incubated for 24 hrs by Western blot analysis relative to control", "type": "cell-based"}, "[27]": {"tested_on": "MDA-MB-231", "test": "Induction of apoptosis in human MDA-MB-231 cells assessed as increase in p21 protein expression at 5 uM incubated for 24 to 48 hrs by Western blot analysis", "type": "functional, cell-based", "details": "time 24-48 hrs"}, "[28]": {"target": "Poly [ADP-ribose] polymerase 1 (Homo sapiens) (UniProt P09874)", "test": "Induction of PARP1 degradation in triple-negative human MDA-MB-231 cells assessed as fold change in PARP1 protein expression at 5 uM incubated for 24 hrs by Western blot analysis relative to control", "type": "cell-based"}, "[29]": {"target": "Poly [ADP-ribose] polymerase 1 (Homo sapiens) (UniProt P09874)", "test": "Induction of PARP1 degradation in human MDA-MB-231 cells assessed as fold change in PARP1 protein expression at 5 uM incubated for 48 hrs in presence of pan-caspase inhibitor, Z-VAD-FMK by Western blot analysis", "type": "cell-based"}, "[30]": {"tested_on": "MDA-MB-231", "test": "Cytotoxicity against triple-negative human MDA-MB-231 cells assessed as reduction in cell viability measured after 48 hrs by CCK8 assay", "type": "functional, cell-based", "details": "MDA-MB-231, 48 h"}, "[31]": {"target": "Poly [ADP-ribose] polymerase 1 (Homo sapiens) (UniProt P09874)", "test": "Induction of PARP1 degradation in triple-negative human MDA-MB-468 cells assessed as fold change in PARP1 protein expression at 5 uM incubated for 24 hrs by Western blot analysis relative to control", "type": "cell-based"}, "[32]": {"target": "Poly [ADP-ribose] polymerase 1 (Homo sapiens) (UniProt P09874)", "test": "Induction of PARP1 degradation in human MDA-MB-468 cells assessed as fold change in PARP1 protein expression at 5 uM pretreated for 2 hrs with pan-caspase inhibitor, Z-VAD-FMK followed by incubation with compound for 48 hrs by Western blot analysis relative to control", "type": "cell-based"}},
  "note": "pIC50: −log10 of the molar value. The source made the active and inactive calls. The rule behind the calls is not given here.",
  "data": [
    {"smiles": "O=C(CC1c2ccccc2-c2ccccc21)N1CCN(C(=O)c2cc(Cc3n[nH]c(=O)c4ccccc34)ccc2F)CC1", "values": [
      {"measurement": "Activity", "setting": "[1]", "value": "inactive"},
      {"measurement": "Activity", "setting": "[2]", "value": "inactive"},
      {"measurement": "Activity", "setting": "[3]", "value": "Active"},
      {"measurement": "Activity", "setting": "[4]", "value": "inactive"},
      {"measurement": "fold change (FC)", "setting": "[5]", "value": 0.8},
      {"measurement": "Activity", "setting": "[6]", "value": "Active"},
      {"measurement": "Activity", "setting": "[7]", "value": "Active"},
      {"measurement": "Activity", "setting": "[8]", "value": "Active"},
      {"measurement": "fold change (FC)", "setting": "[9]", "value": 0.4},
      {"measurement": "fold change (FC)", "setting": "[10]", "value": 0.6},
      {"measurement": "Activity", "setting": "[11]", "value": "Active"},
      {"measurement": "fold change (FC)", "setting": "[12]", "value": 0.6},
      {"measurement": "Activity", "setting": "[13]", "value": "Active"},
      {"measurement": "Activity", "setting": "[14]", "value": 60, "unit": "%"},
      {"measurement": "Activity", "setting": "[15]", "value": "Active"},
      {"measurement": "Activity", "setting": "[16]", "value": "Active"},
      {"measurement": "Activity", "setting": "[17]", "value": "Active"},
      {"measurement": "pIC50", "setting": "[18]", "value": 5.24},
      {"measurement": "Activity", "setting": "[19]", "value": "Active"},
      {"measurement": "Activity", "setting": "[20]", "value": "Active"},
      {"measurement": "pIC50", "setting": "[21]", "value": 5.68},
      {"measurement": "fold change (FC)", "setting": "[22]", "value": 0.3},
      {"measurement": "fold change (FC)", "setting": "[23]", "value": 0.9},
      {"measurement": "Activity", "setting": "[24]", "value": "inactive"},
      {"measurement": "fold change (FC)", "setting": "[25]", "value": 0.3},
      {"measurement": "fold change (FC)", "setting": "[26]", "value": 0.8},
      {"measurement": "Activity", "setting": "[27]", "value": "Active"},
      {"measurement": "fold change (FC)", "setting": "[28]", "value": 0.8},
      {"measurement": "fold change (FC)", "setting": "[29]", "value": 0.3},
      {"measurement": "pIC50", "setting": "[30]", "value": 4.97},
      {"measurement": "fold change (FC)", "setting": "[31]", "value": 0.8},
      {"measurement": "fold change (FC)", "setting": "[32]", "value": 0.4}
    ]}
  ]
}
